Data set [1] in a line: DRUGMATRIX: Sigma2 radioligand binding (ligand: [3H] Ifenprodil). In kind it is cell membranes, Rattus norvegicus, Wistar, Brain, Membrane. The following applies: Not Active = under 50% inhibition at 10 µM.
The target of data set [2] is 5-hydroxytryptamine receptor 2B (Homo sapiens, UniProt P41595). In kind it is cell membranes, CHO-K1, Membrane. Particulars: for Ki: read-out: Ki. As to all read-outs here: in other assays of this panel Not Active means under 50% inhibition at 10 µM.
A further data set addresses Cytochrome P450 2C9 (Homo sapiens, UniProt P11712). The following applies: bti-tn-5b1-4.
Data set [3] addresses Kappa-type opioid receptor (Homo sapiens, UniProt P41145). Description: DRUGMATRIX: Opiate kappa (OP2, KOP) radioligand binding (ligand: [3H] Diprenorphine). In kind it is cell membranes, HEK293, Membrane. Particulars: hek293; Not Active = under 50% inhibition at 10 µM.
The target in a further data set is T1, Adenosine receptor A1 (Homo sapiens, UniProt P30542).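 Also: radioligand binding assay at the adenosine A1 receptor, with DPCPX serving as the labelled ligand; in other assays of this panel Not Active means under 50% inhibition at 10 µM.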
T1 sequence (P30542 whole entry): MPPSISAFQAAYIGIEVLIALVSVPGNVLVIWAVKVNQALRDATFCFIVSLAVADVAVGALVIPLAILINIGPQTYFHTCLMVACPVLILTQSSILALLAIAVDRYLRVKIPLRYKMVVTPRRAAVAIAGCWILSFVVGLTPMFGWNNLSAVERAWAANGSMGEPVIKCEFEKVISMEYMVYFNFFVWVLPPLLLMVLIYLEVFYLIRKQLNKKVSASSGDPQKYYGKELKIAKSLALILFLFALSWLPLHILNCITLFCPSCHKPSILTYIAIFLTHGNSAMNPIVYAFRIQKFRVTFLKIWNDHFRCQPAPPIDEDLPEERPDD
In kind it is cell membranes, CHO, Membrane. The following applies: cho.

Data set [4] is described as follows: DRUGMATRIX: Glutamate, Kainate radioligand binding (ligand: [3H] Kainic acid). The data set is classed as cell membranes, Rattus norvegicus, Wistar, Brain, Membrane. The following applies: Not Active = under 50% inhibition at 10 µM.

A word on the IC50: it is the concentration needed to halve the response being measured. One may read the Ki as a measure of affinity in units of concentration, obtained from inhibition or displacement.

Each structure is given as a SMILES string.

5-hydroxytryptamine receptor 2B, sequence (P41595 whole entry): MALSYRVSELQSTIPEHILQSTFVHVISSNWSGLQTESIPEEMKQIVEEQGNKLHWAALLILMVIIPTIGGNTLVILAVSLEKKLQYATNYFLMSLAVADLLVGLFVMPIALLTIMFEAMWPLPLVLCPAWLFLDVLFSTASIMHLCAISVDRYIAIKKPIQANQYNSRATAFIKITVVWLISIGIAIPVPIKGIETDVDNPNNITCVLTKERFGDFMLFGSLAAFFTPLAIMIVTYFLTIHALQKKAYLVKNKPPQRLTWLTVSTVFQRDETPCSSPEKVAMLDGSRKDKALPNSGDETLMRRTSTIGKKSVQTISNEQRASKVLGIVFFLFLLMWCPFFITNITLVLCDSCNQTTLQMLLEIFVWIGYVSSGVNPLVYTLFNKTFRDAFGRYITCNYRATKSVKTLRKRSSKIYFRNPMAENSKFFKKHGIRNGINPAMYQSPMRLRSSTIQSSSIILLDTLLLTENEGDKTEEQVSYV
Cytochrome P450 2C9, sequence (P11712 whole entry): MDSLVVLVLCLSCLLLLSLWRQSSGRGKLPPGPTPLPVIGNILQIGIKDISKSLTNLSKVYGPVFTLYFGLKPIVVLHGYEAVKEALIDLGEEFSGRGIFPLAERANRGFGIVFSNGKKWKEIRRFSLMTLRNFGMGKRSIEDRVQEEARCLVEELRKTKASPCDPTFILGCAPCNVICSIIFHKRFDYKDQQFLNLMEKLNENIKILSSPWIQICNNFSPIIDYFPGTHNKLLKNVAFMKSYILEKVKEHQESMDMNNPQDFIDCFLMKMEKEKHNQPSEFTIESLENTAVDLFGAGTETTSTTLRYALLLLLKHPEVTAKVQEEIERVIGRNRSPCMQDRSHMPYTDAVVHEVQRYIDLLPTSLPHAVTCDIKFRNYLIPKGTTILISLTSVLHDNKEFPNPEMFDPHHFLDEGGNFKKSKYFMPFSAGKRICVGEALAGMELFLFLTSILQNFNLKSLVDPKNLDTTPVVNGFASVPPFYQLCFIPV
Kappa-type opioid receptor, sequence (P41145 whole entry): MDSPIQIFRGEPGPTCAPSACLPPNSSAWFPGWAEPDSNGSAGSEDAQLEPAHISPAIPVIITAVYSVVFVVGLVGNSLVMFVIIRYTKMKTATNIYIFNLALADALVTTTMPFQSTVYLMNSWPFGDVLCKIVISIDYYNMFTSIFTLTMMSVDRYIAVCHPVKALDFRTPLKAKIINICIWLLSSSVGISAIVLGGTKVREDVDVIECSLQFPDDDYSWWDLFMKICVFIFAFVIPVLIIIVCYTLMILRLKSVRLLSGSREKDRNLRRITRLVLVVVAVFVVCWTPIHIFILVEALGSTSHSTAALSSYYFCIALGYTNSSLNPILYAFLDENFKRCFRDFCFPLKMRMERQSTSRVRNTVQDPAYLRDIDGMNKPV

Take `CC(=O)OC[C@H]1O[C@@H](n2ncc(=O)[nH]c2=O)[C@H](OC(C)=O)[C@@H]1OC(C)=O` [AZARIBINE]: the IC50 result (in data set [1]; in data set [2] (cho-k1); on Cytochrome P450 2C9; in data set [3]; against Adenosine receptor A1; in data set [4]) was “Not Active” throughout. Also, the Ki entry (in data set [1]; on Cytochrome P450 2C9; in data set [4]) was “Not Active” throughout.
In the case of `C[C@H]1[C@H](NC(=O)/C(=N\OC(C)(C)C(=O)O)c2csc(N)n2)C(=O)N1S(=O)(=O)O` [AZTREONAM], the IC50 entry (in data set [1]; in data set [2] (cho-k1); on Cytochrome P450 2C9; in data set [3]; at Adenosine receptor A1; in data set [4]) was “Not Active” in each case. The Ki entry (in data set [1]; at Cytochrome P450 2C9; in data set [4]) was “Not Active” throughout.
Take `O=C(O)CCNC(=O)c1ccc(/N=N/c2ccc(O)c(C(=O)O)c2)cc1` [BALSALAZIDE]: the IC50 entry (in data set [1]; in data set [2] (cho-k1); at Cytochrome P450 2C9; in data set [3]; against Adenosine receptor A1; in data set [4]) was “Not Active” each time. Also, the Ki result (in data set [1]; on Cytochrome P450 2C9; in data set [4]) was “Not Active” each time.
Take `COc1cc(OC)c(C(=O)CCCN2CCCC2)c(OC)c1` [BUFLOMEDIL]: the IC50 entry (in data set [1]; in data set [2] (cho-k1); at Cytochrome P450 2C9; in data set [3]; at Adenosine receptor A1; in data set [4]) was “Not Active” each time. The Ki entry (in data set [1]; at Cytochrome P450 2C9; in data set [4]) was “Not Active” in each case.
Turning to `ClC(Cl)(Cl)Cl` [CARBON TETRACHLORIDE], the IC50 result (in data set [1]; in data set [2] (cho-k1); on Cytochrome P450 2C9; in data set [3]; at Adenosine receptor A1; in data set [4]) was “Not Active” in each case. In addition, the Ki entry (in data set [1]; on Cytochrome P450 2C9; in data set [4]) was “Not Active” each time.
`CO/N=C(\C(=O)N[C@@H]1C(=O)N2C(C(=O)O)=C(COC(C)=O)CS[C@H]12)c1csc(N)n1` [CEFOTAXIME]: the IC50 result (in data set [1]; in data set [2] (cho-k1); at Cytochrome P450 2C9; in data set [3]; on Adenosine receptor A1; in data set [4]) was “Not Active” throughout. In addition, the Ki result (in data set [1]; on Cytochrome P450 2C9; in data set [4]) was “Not Active” throughout.
As to `CNC1=Nc2ccc(Cl)cc2C(c2ccccc2)=[N+]([O-])C1` [CHLORDIAZEPOXIDE], the IC50 result (in data set [1]; in data set [2] (cho-k1); against Cytochrome P450 2C9; in data set [3]; against Adenosine receptor A1; in data set [4]) was “Not Active” in each case. The Ki entry (in data set [1]; on Cytochrome P450 2C9; in data set [4]) was “Not Active” in each case.
`Cc1cc(O)cc(C)c1Cl` [CHLOROXYLENOL]: the IC50 entry in data set [1] is “Not Active”; in data set [2] (read-out: IC50) it was 1860 nM; on Cytochrome P450 2C9, “Not Active”; in data set [3], “Not Active”; on Adenosine receptor A1 it was “Not Active”; in data set [4], “Not Active”. The Ki entry in data set [1] was “Not Active”; in data set [2], 1180 nM; at Cytochrome P450 2C9, “Not Active”; in data set [4] it was “Not Active”.
For the molecule `CCCNC(=O)NS(=O)(=O)c1ccc(Cl)cc1` [CHLORPROPAMIDE], the IC50 entry (in data set [1]; in data set [2] (cho-k1); against Cytochrome P450 2C9; in data set [3]; against Adenosine receptor A1; in data set [4]) was “Not Active” throughout. Moreover, the Ki result (in data set [1]; at Cytochrome P450 2C9; in data set [4]) was “Not Active” throughout.
For `NS(=O)(=O)c1cc(C2(O)NC(=O)c3ccccc32)ccc1Cl` (stereo unspecified) [CHLORTHALIDONE], the IC50 entry (in data set [1]; in data set [2] (cho-k1); on Cytochrome P450 2C9; in data set [3]; against Adenosine receptor A1; in data set [4]) was “Not Active” in each case. For the same molecule, the Ki entry (in data set [1]; on Cytochrome P450 2C9; in data set [4]) was “Not Active” throughout.
For `O=C(O)CC(O)(CC(=O)O)C(=O)O` [CITRIC ACID], the concentration for half-maximal inhibition (IC50) entry (in data set [1]; in data set [2] (cho-k1); at Cytochrome P450 2C9; in data set [3]; on Adenosine receptor A1; in data set [4]) was “Not Active” each time. Moreover, the inhibition constant Ki result (in data set [1]; at Cytochrome P450 2C9; in data set [4]) was “Not Active” throughout.
For the molecule `CC(C)NCC(O)c1ccccc1Cl` (stereo unspecified) [CLORPRENALINE], the IC50 entry (in data set [1]; in data set [2] (cho-k1); against Cytochrome P450 2C9; in data set [3]; on Adenosine receptor A1; in data set [4]) was “Not Active” in each case. In addition, the Ki result (in data set [1]; on Cytochrome P450 2C9; in data set [4]) was “Not Active” each time.
Take `CN1CCN(C(c2ccccc2)c2ccccc2)CC1` [CYCLIZINE]: the IC50 result in data set [1] is “Not Active”; in data set [2] (read-out: IC50) it was 373 nM; at Cytochrome P450 2C9, “Not Active”; in data set [3] it was “Not Active”; on Adenosine receptor A1 it was “Not Active”; in data set [4], “Not Active”. The inhibition constant (Ki) entry in data set [1] was “Not Active”; in data set [2], 238 nM; at Cytochrome P450 2C9, “Not Active”; in data set [4], “Not Active”.
As to `CN1C[C@@H]2C[C@H]1CN2c1cc2c(cc1F)c(=O)c(C(=O)O)cn2C1CC1` [DANOFLOXACIN], the IC50 entry (in data set [1]; in data set [2] (cho-k1); against Cytochrome P450 2C9; in data set [3]; on Adenosine receptor A1; in data set [4]) was “Not Active” throughout. Besides, the Ki result (in data set [1]; at Cytochrome P450 2C9; in data set [4]) was “Not Active” throughout.
As to `COc1cccc2c1C(=O)c1c(O)c3c(c(O)c1C2=O)C[C@@](O)(C(C)=O)C[C@@H]3O[C@H]1C[C@H](N)[C@H](O)[C@H](C)O1` [DAUNORUBICIN], the IC50 result (in data set [1]; in data set [2] (cho-k1); against Cytochrome P450 2C9; in data set [3]; against Adenosine receptor A1; in data set [4]) was “Not Active” in each case. The Ki result (in data set [1]; at Cytochrome P450 2C9; in data set [4]) was “Not Active” each time.
Regarding `O=C(O)c1cc(-c2ccc(F)cc2F)ccc1O` [DIFLUNISAL], the IC50 result (in data set [1]; in data set [2] (cho-k1); against Cytochrome P450 2C9; in data set [3]; against Adenosine receptor A1; in data set [4]) was “Not Active” throughout. Besides, the inhibition constant (Ki) result (in data set [1]; on Cytochrome P450 2C9; in data set [4]) was “Not Active” in each case.
For the molecule `C[S+](C)[O-]` [DIMETHYL SULFOXIDE], the IC50 result (in data set [1]; in data set [2] (cho-k1); on Cytochrome P450 2C9; in data set [3]; against Adenosine receptor A1; in data set [4]) was “Not Active” in each case. Besides, the Ki result (in data set [1]; at Cytochrome P450 2C9; in data set [4]) was “Not Active” throughout.
As to `CC1=NN(c2ccccc2)C(=O)C1` [EDARAVONE], the IC50 entry (in data set [1]; in data set [2] (cho-k1); on Cytochrome P450 2C9; in data set [3]; against Adenosine receptor A1; in data set [4]) was “Not Active” throughout. Further, the Ki entry (in data set [1]; at Cytochrome P450 2C9; in data set [4]) was “Not Active” in each case.
`C[C@]12CC[C@@H]3c4ccc(O)cc4CC[C@H]3[C@@H]1C[C@@H](O)[C@@H]2O` [ESTRIOL]: the IC50 result (in data set [1]; in data set [2] (cho-k1); against Cytochrome P450 2C9; in data set [3]; against Adenosine receptor A1; in data set [4]) was “Not Active” in each case. In addition, the Ki entry (in data set [1]; on Cytochrome P450 2C9; in data set [4]) was “Not Active” in each case.
As for `C#C[C@]1(O)CC[C@H]2[C@@H]3CCC4=CC(=O)CC[C@]4(C)[C@H]3CC[C@@]21C` [ETHISTERONE], the IC50 result (in data set [1]; in data set [2] (cho-k1); at Cytochrome P450 2C9; in data set [3]; on Adenosine receptor A1; in data set [4]) was “Not Active” in each case. Further, the inhibition constant Ki entry (in data set [1]; on Cytochrome P450 2C9; in data set [4]) was “Not Active” in each case.
With `CC(O)(P(=O)(O)O)P(=O)(O)O` [ETIDRONIC ACID], the IC50 result (in data set [1]; in data set [2] (cho-k1); against Cytochrome P450 2C9; in data set [3]; at Adenosine receptor A1; in data set [4]) was “Not Active” throughout. Moreover, the Ki entry (in data set [1]; at Cytochrome P450 2C9; in data set [4]) was “Not Active” in each case.

These data come from ChEMBL document CHEMBL1909046, “DrugMatrix in vitro pharmacology data”.
